Experimental data: a melting point compilation (Tetko et al.; mined from patent text by program, amines drawn as free bases though some values may be those of a salt)

| SMILES | melting point [°C] |
| --- | --- |
| CC1COc2c(F)c(F)c([N+](=O)[O-])c3c(=O)[nH]c(=O)n1c23 (stereo not drawn) | 286 to 288 |
| O=C(c1ccccc1)N1CC(O)C(O)C(O)C1CO (stereo not drawn) | 159 |
| C[C@H](C1CCCCC1)N1C(=O)c2c(F)c(F)c(F)c(F)c2C1=O | 147 to 148 |
| CC(C)(C)C(NC(=O)CCc1ccccc1)Nc1c(Nc2cccnc2Cl)c(=O)c1=O (stereo not drawn) | 160 to 161 |
| CCCCCCCCCCCCn1nnc(C(C)(C)S(=O)(=O)Nc2c(C(C)C)cccc2C(C)C)n1 | 63 to 65 |
| CCC(OCCc1c2c3c(c(OCc4ccc(-c5ccccc5)cn4)ccc3n1Cc1ccc(Cl)cc1)SC(C)C2)C(=O)O (stereo not drawn) | 159 to 162 |
| O[C@@H]1CN(CCc2ccccc2)CC[C@H]1c1ccccc1 (relative stereo) | 115 to 119 |
| CC(=O)N(C)c1cc(N)cc(N(C)C(C)=O)c1 | 179 to 181 |
| CN(C(=O)OCc1ccccc1)c1ccc(OCC(=O)N[C@@H](CC(N)=O)C(=O)N[C@@H](Cc2ccccc2)[C@H](O)C(=O)N2CCC[C@H]2C(=O)NC(C)(C)C)cc1 | 98 to 100 |
| COc1cc(C)cc(OC)c1NC(=O)CNC(=O)OC(C)(C)C | 146 |
| CCOC(=O)c1cc(C#N)c(=O)[nH]c1C | 208 to 210 |
| CCN1C(=O)CCC(C)(C)c2cc(Nc3ncc(Cl)c(N[C@H]4[C@@H](C(N)=O)[C@@H]5C=C[C@H]4C5)n3)c(OC)cc21 | 156 to 166 |
| CC(=O)c1cc(NC(=O)NCCCN(CCCNC(=O)Nc2cc(C(C)=O)cc(C(C)=O)c2)CCCNC(=O)Nc2cc(C(C)=O)cc(C(C)=O)c2)cc(C(C)=O)c1 | 147 to 148 |
| CC(N)C(N)CC(=O)c1ccccc1 (stereo not drawn) | 106 to 107 |
| NCc1cc(-c2ccc(Cl)cc2)no1 | 81 |
| O=C(O)c1ccccc1OCCN1CCC(c2cn(CC3CC3)c3ccccc23)CC1 | 145 to 147 |
| Fc1cc(Cl)cnc1Cl | 38 to 39 |
| COC(=O)CSc1cc(=O)n(C)c(=O)n1C | 96 to 97.5 |
| CC(=O)c1ccc(SCC(=O)O)cc1 | 151 to 153 |
| OCC1OC(n2cnc3c(NC4Cc5ccccc5C4)ncnc32)C(O)C1O (stereo not drawn) | 166 to 168 |

The remaining lines, values ahead:

| melting point [°C] | SMILES |
| --- | --- |
| 115 to 116 | CC(C)CC(C(=O)O)c1cc(Cl)c(-c2ccc(C(F)(F)F)cc2)c(OCC2CC2)c1 (stereo not drawn) |
| 71 to 72 | CCOC(=O)c1cn(Cc2ccccc2)nc1OCc1ccccc1 |
| 120 to 121 | CCOC(=O)c1cn(Cc2ccccc2)nc1OCc1ccc(OCc2nc(-c3ccco3)oc2C)c(C)c1 |
| 90 to 91 | CC(C)c1ccc(C2COc3ccc(Br)cc32)cc1 (stereo not drawn) |
| 166 to 167 | COc1cccc(-c2nc3n(n2)Cc2cc(OC)ccc2-3)c1 |
| 147 to 150 | CC(=O)Oc1ccc(-c2c3ccccc3cc3sc(C)c(C)c23)cc1 |
| 209 to 210 | CC(C)(C)c1cc(NC(=O)c2ccccc2)cc(C(C)(C)C)c1O |
| 199 to 201 | CS(=O)(=O)Oc1ccc(N2CC(COc3ccc(C(=O)O)cc3)CC2=O)cc1 (stereo not drawn) |
| 180 to 183 | COc1cc2ncc(C#N)c(Nc3ccc4cn[nH]c4c3)c2cc1OC |
| 195 to 197 | CC(=O)OCCCCn1cnc2c(Cl)nc(Nc3ccccc3)nc21 |
| 261 to 263 | O=C1N=C(c2ccccc2OCC(F)(F)F)N=C2N=CN=C12 |
| 123 to 124 | OC(COc1ccc(-c2ccc(I)cc2)cc1)CN1CCCC1 (stereo not drawn) |
| 150 | COc1ccc2sc(C(=O)O)c(OCc3ccccc3)c2c1 |
| 107 | CCOC(=O)C(CC)Sc1nc2c(c(=O)[nH]c(=O)n2C)n1Cc1cccc(N)c1 (stereo not drawn) |
| 333 to 335 | CN1CCN(c2ncnc3nc(-c4ccncc4)[nH]c23)CC1 |
| 154 | COC(=O)COc1cc(C(=O)OC)nc2cc(Cl)ccc12 |
| 113 to 116 | Cc1cccc(NC(=O)CN2CCN(c3ncccn3)CC2)c1 |
| 146 to 148 | CSc1nccc(C)c1NC(=O)CSc1nc2ccccc2o1 |
